Reference: ChEMBL document CHEMBL1201862, “PubChem BioAssay data set” (2004)
Calls of active or inactive are those of the source.

Experiments:
Cytochrome P450 2C19 = Cytochrome P450 2C19 (Homo sapiens, UniProt P33261); assay: Cytochrome panel assay with activity outcomes. Panel member name: p450-cyp2c19 Compounds with AC50 equal or less than 10 uM are considered active; type: functional
[1] = biological target: T1, Heat shock factor protein 1 (Mus musculus, UniProt P38532); assay: decrease of HSF1-responsive luciferase luminescence – cell-based, NIH3T3, dose retest, confirmation (AID 2382); type: functional;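 also: NIH3T3 fibroblasts with HSF1-driven luciferase reporter stressed by proteasome inhibitor MG132; luminescence from HSF1-driven luciferase expression after 8 hours of MG132 stress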
T1 sequence (P38532 whole entry): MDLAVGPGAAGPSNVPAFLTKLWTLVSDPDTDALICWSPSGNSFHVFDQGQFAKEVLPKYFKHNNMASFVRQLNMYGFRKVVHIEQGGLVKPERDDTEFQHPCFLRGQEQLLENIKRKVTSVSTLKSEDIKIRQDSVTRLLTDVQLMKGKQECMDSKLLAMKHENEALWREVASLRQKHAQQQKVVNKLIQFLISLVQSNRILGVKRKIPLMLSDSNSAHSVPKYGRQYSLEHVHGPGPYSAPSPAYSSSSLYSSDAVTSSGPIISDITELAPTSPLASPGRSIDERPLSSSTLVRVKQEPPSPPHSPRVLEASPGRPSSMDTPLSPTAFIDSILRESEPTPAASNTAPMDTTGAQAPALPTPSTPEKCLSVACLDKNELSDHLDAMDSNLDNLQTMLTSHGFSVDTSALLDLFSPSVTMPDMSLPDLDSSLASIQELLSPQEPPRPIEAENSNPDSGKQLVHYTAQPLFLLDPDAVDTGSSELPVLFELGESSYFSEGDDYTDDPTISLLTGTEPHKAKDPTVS

Cytochrome P450 3A4 = Cytochrome P450 3A4 (Homo sapiens, UniProt P08684);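 also: CYP3A4 tested as one member of a cytochrome P450 panel screen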
[2] = Trypanosoma cruzi growth suppression in host cells – NIH3T3 host cells, beta-gal luminescence, confirmation (AID 2044); type: functional, cell-based;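 also: intracellular parasites grown in NIH/3T3 mouse fibroblasts as host cells; luminescent beta-galactosidase reporter signal from transgenic T. cruzi replicating inside host cells; inhibitors lower the luminescence signal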
[3] = NIH3T3 cell viability loss – ATP luminescence, mouse fibroblasts, counter-screen, dose response (AID 2010); type: functional, cell-based;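 also: cells exposed to compound for about 90 hours before reading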
Cytochrome P450 2D6 = Cytochrome P450 2D6 (Homo sapiens, UniProt P10635);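 also: CYP2D6 member of a cytochrome P450 panel assay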
Streptococcus = assay: GAS UMAA2166 growth inhibition – luminescence, BacTiterGlo, counter-screen for streptokinase expression inhibitor project, dose response (AID 1915); type: functional, organism-based;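 also: potency for reduction of bacterial viability or growth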
[4] = test system: Streptococcus sp. 'group A'; assay: Streptococcus pyogenes SK(-)GAS viability under kanamycin – luminescence, BacTiterGlo, confirmation, counter-screen for streptokinase expression inhibitor project, dose response (AID 1900); type: functional, organism-based

Chain of Cytochrome P450 3A4 (P08684 whole entry): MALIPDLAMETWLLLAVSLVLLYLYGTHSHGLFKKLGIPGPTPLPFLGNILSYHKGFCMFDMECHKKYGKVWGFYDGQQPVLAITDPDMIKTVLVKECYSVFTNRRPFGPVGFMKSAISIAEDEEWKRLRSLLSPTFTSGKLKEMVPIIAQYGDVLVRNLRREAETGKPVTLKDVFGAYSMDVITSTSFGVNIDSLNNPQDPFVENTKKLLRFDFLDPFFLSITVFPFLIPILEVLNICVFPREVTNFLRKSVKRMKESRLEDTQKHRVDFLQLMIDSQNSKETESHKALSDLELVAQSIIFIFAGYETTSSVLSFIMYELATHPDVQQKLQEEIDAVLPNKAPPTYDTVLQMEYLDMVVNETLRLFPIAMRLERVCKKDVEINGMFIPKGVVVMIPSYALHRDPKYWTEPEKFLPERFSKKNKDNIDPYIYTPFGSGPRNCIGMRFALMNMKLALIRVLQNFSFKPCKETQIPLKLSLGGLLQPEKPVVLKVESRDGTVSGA
Chain of Cytochrome P450 2D6 (P10635 whole entry): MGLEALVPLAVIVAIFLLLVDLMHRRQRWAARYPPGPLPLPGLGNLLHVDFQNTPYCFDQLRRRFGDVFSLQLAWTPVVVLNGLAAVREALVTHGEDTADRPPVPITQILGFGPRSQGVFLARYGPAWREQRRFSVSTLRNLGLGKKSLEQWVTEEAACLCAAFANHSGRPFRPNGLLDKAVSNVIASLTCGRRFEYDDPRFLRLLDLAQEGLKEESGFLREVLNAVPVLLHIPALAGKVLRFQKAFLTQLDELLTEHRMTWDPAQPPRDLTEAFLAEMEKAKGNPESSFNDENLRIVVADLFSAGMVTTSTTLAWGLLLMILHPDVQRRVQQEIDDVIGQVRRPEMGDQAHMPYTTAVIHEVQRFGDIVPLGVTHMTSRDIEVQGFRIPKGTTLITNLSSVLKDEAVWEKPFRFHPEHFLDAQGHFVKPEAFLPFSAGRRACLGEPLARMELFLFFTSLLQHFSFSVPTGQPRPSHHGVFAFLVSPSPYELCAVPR
Chain of Cytochrome P450 2C19 (P33261 whole entry): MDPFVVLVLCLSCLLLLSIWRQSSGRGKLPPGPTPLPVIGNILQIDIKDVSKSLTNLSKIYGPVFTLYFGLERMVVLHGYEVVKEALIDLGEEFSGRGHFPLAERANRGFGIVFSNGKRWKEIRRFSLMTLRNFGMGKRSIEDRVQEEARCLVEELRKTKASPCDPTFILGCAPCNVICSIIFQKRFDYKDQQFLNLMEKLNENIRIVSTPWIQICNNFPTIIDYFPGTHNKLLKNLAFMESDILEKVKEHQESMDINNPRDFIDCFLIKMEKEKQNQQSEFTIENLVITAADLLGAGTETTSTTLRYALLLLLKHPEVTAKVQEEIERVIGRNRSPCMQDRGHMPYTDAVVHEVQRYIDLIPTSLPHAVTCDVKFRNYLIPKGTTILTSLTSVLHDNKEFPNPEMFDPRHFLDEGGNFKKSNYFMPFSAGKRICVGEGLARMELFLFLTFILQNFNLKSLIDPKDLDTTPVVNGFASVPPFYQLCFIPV

N[C@H](CCCC(=O)O)C(=O)O
AC50 (Cytochrome P450 2C19): inconclusive

O=C(O)C1C2C=CC(O2)C1C(=O)Nc1ccc2c(c1)OCCO2 (configuration not stated)
EC50 [1]: 25.9 µM (active)

O=C1CCC[C@@H](C(C(=O)OCc2ccccc2)C(=O)OCc2ccccc2)C1
AC50 (Cytochrome P450 3A4): 3.98 µM (inconclusive) | AC50 (Cytochrome P450 2C19; read-out: AC50): 3.98 µM (inconclusive)

COc1cc(NC(=O)c2cc(-c3ccc4c(c3)OCO4)on2)cc(OC)c1OC
EC50 [2]: 0.115 µM (active) | EC50 [3]: > 30 µM (not active)

Cn1c(=O)c2nc(CCS)[nH]c2n(C)c1=O
AC50 (Cytochrome P450 3A4): 10 µM (inconclusive)

Cc1ccc(OCC(=O)Nc2cnc(O)nc2O)cc1C
EC50 [1]: > 195 µM (not active)

CC(C)Cn1c(N)c(C(=O)CSc2nc3ccccc3c(=O)n2CCCN2CCOCC2)c(=O)n(C)c1=O
EC50 [2]: 1.5 µM (active) | EC50 [3]: > 60 µM (not active)

C=CC[C@@H]1C=C[C@H](O/N=C(\C)CCN2CCc3nc(CC)c(CC)cc3C2)[C@H](CO)O1
AC50 (Cytochrome P450 2D6): 3.98 µM (inconclusive)

CCOc1ccc(C(=O)COC(=O)Cc2nnc(O)c3ccccc23)cc1
EC50 [1]: > 195 µM (not active)

OC(COc1ccc(F)cc1Cl)CN1CCC(Cc2ccccc2)CC1 (configuration not stated)
EC50 [2]: 4.04 µM (active) | EC50 [3]: > 30 µM (not active)

CN1CCN(c2nc(Nc3cccc(C(F)(F)F)c3)nc(N3CCOCC3)n2)CC1
EC50 [2]: 1.78 µM (active) | EC50 [3]: 10.3 µM (active)

O=C(O)CN1CCN(Cc2ccc(F)cc2Cl)C1=O
AC50 (Cytochrome P450 2D6): 20 µM (inconclusive)

Cc1ccc(-n2c(=O)cc(N3CCN(Cc4ccccc4)CC3)[nH]c2=O)cc1
EC50 [1]: > 195 µM (not active)

CC(C)CCNC(=O)c1ccc2c(SCC(=O)O)c3c(nc2c1)CCC3
EC50 [1]: > 195 µM (not active)

Cc1nn(-c2ccc([N+](=O)[O-])cc2)c2c1C(c1ccc(OC(F)F)cc1)N1C(=N2)C(=O)Nc2ccccc21 (configuration not stated)
EC50 [2]: 1.31 µM (active) | EC50 [3]: > 60 µM (not active)

COC(=O)CSc1ccc2nnc(-c3ccc(F)cc3)n2n1
AC50 (Cytochrome P450 2C19; read-out: AC50): 28.2 µM (inconclusive)

CCNc1ncc2nc(-c3cccs3)c(=O)n(CCc3ccccc3)c2n1
AC50 (Cytochrome P450 3A4): 15.8 µM (inconclusive) | AC50 (Cytochrome P450 2D6): 20 µM (inconclusive)

CCCn1c(-c2cccs2)nc2nc3ccccc3nc21
AC50 (Cytochrome P450 2D6): 28.2 µM (inconclusive)

CCOC(=O)c1cc2c(C(F)(F)F)cc(-c3ccccc3)nc2o1
AC50 (Cytochrome P450 2C19; read-out: AC50): 25.1 µM (inconclusive)

Cc1nc2cnc(Nc3ccccc3)nc2n(C[C@H]2CCCO2)c1=O
AC50 (Cytochrome P450 3A4): 15.8 µM (inconclusive)

Clc1ccc(CNCCCSc2ncccn2)cc1Cl
EC50 [2]: 1.19 µM (active) | EC50 [3]: > 60 µM (not active)

Nc1cc(N)nc(SCC(=O)c2ccccc2)n1
AC50 (Cytochrome P450 3A4): 35.5 µM (inconclusive) | AC50 (Cytochrome P450 2C19; read-out: AC50): 7.08 µM (inconclusive)

Cc1cc(Nc2ccc3c(c2)OCCO3)c2cc(Cl)ccc2n1
EC50 [1]: 17.2 µM (active)

CC1(C)OC(=O)N(Cc2ccco2)C1(C)O (configuration not stated)
AC50 (Cytochrome P450 2C19; read-out: AC50): 14.1 µM (inconclusive)

CCN(CC)S(=O)(=O)c1ccc(C(=O)Nc2ncn(Cc3ccccc3)n2)cc1
AC50 (Cytochrome P450 2C19; read-out: AC50): 25.1 µM (inconclusive)

Cc1c(C2=CCN(S(=O)(=O)c3ccc(Br)cc3)CC2)c2ccccc2n1C
EC50 [1]: > 195 µM (not active)

Cc1noc(C)c1-c1nccc(NCCN2CCOCC2)n1
AC50 (Cytochrome P450 3A4): 20 µM (inconclusive) | AC50 (Cytochrome P450 2D6): 20 µM (inconclusive)

Cc1ccc(S(=O)(=O)NCCSc2nnnn2C)cc1
AC50 (Cytochrome P450 3A4): 14.1 µM (inconclusive)

Cc1nc(C)c(-c2nnc(-c3cccc(S(=O)(=O)N(C)C)c3)o2)cc1C(=O)NN
EC50 [1]: > 195 µM (not active)

CCOC(=O)c1nc(Nc2cc(C)cc(C)c2)c2ccccc2n1
EC50 [2]: 2.85 µM (active) | EC50 [3]: > 30 µM (not active)

O=C(NCCc1csc(-c2ccccc2)n1)c1ccccc1F
EC50 [2]: 0.531 µM (active) | EC50 [3]: > 60 µM (not active)

NS(=O)(=O)c1ccc(Nc2nc(-c3cccc([N+](=O)[O-])c3)cs2)cc1
EC50 [2]: 4.08 µM (active) | EC50 [3]: > 60 µM (not active)

CC12CCC3C(CC=C4CC5(CCC43C)OCCO5)C1CCC2=O (configuration not stated)
EC50 [1]: > 195 µM (not active)

COCCn1c(=O)c(-c2cccs2)nc2cnc(OCc3ccccc3)nc21
AC50 (Cytochrome P450 3A4): 3.16 µM (inconclusive)

COc1ccccc1-c1cncnc1N(C)Cc1ccco1
AC50 (Cytochrome P450 2D6): 25.1 µM (inconclusive)

C/C=C(\C)CN1CCC(n2nccc2NC(=O)c2ccc(OC)cc2)CC1
EC50 [2]: 0.703 µM (active) | EC50 [3]: > 60 µM (not active)

COc1ccccc1CN1CCCC(CN(CCN(C)C)C(=O)C2CCCC2)C1 (configuration not stated)
EC50 [1]: > 195 µM (not active)

O=S(=O)(Nc1cccc(Oc2cnccn2)c1)c1ccc(F)cc1
EC50 [1]: > 195 µM (not active)

COc1cccc(-c2cc(NCc3cnc(C)cn3)ncn2)c1
AC50 (Cytochrome P450 2C19; read-out: AC50): 0.398 µM (inconclusive)

Cc1ccc([C@@]2(C)CC/C(=N/N=C3\CC[C@](C)(c4ccc(C)c(C)c4)c4cc(C)c(C)cc43)c3cc(C)c(C)cc32)cc1C
AC50 (Cytochrome P450 2C19): inconclusive

CN1CCN(c2ncnc3ccc(-c4ccc(C(=O)N(C)C)cc4)cc23)CC1
AC50 (Cytochrome P450 3A4): 25.1 µM (inconclusive)

CCOCCn1c(SCC(=O)OCc2ccccc2)nc2c1c(=O)[nH]c(=O)n2C
EC50 [1]: > 195 µM (not active)

CC(C)(C)C1CCC2(CC1)CCN(CCCN1CCOCC1)CC2
AC50 (Cytochrome P450 2D6): 3.98 µM (inconclusive)

Cc1ccc(-n2c(C)cc(/C=C(\C#N)C(=O)NCC3CCCO3)c2C)cc1 (configuration not stated)
AC50 (Cytochrome P450 3A4): 31.6 µM (inconclusive) | AC50 (Cytochrome P450 2D6): 14.1 µM (inconclusive)

O=C(NCc1ccccc1)c1onc(CSc2ccccc2)c1C(=O)NCC1CC1
EC50 [2]: 4.28 µM (active) | EC50 [3]: > 60 µM (not active)

CCOc1cccc(CN2CCCC(CCC(=O)NCc3ccccc3F)C2)c1O (configuration not stated)
EC50 [2]: 0.222 µM (active) | EC50 [3]: > 60 µM (not active)

CCOc1ccc(CN(C)CC(=O)Nc2cc(OC)c([N+](=O)[O-])cc2C)cc1
EC50 [2]: 0.404 µM (active) | EC50 [3]: > 30 µM (not active)

O=C(CN1CCN(Cc2ccccc2)CC1)c1ccc(Br)cc1
AC50 (Cytochrome P450 3A4): 14.1 µM (inconclusive) | AC50 (Cytochrome P450 2C19; read-out: AC50): 14.1 µM (inconclusive)

Cc1cc(/C=C2\SC(=O)NC2=O)c(C)n1-c1ccc(N2CCOCC2)cc1
EC50 (Streptococcus): 4.72 µM (active) | EC50 [4]: 1.32 µM (active)

NS(=O)(=O)c1ccc(/N=N\c2cc3ccccc3c(C(=O)O)c2O)cc1
AC50 (Cytochrome P450 3A4): 3.16 µM (inconclusive)

COC(=O)N1CCC2(CCN(Cc3ccc(C#N)cc3)CC2)CC1
AC50 (Cytochrome P450 2C19; read-out: AC50): 0.1 µM (inconclusive)

CC(NC(=O)CN1C(=O)NC(Cc2ccccc2)(Cc2ccccc2)C1=O)C12CC3CC(CC(C3)C1)C2 (configuration not stated)
EC50 [2]: 2.81 µM (active) | EC50 [3]: > 30 µM (not active)

O=C(NCCN1CCN(C(=O)c2cc3ccccc3oc2=O)CC1)c1cc2ccccc2oc1=O
AC50 (Cytochrome P450 3A4): 14.1 µM (inconclusive) | AC50 (Cytochrome P450 2C19; read-out: AC50): 3.98 µM (inconclusive)

Brc1ccccc1OCCCCCN1CCCC1
EC50 [2]: 2.22 µM (active) | EC50 [3]: > 30 µM (not active)

Cc1c(C=O)c2ccccn2c1C(=O)c1ccncc1
AC50 (Cytochrome P450 3A4): 10 µM (inconclusive) | AC50 (Cytochrome P450 2D6): 25.1 µM (inconclusive)

CCOC(=O)N1CCN(CC(O)COC2CC(C)CC(C)(C)C2)CC1 (configuration not stated)
EC50 [1]: > 195 µM (not active)

COc1ccc(COC(=O)N/N=C2/C[C@@H](O)[C@@H](O)[C@@H]3[C@@H]4C(=O)N(c5cccc(Oc6ccccc6)c5)C(=O)[C@H]4CC[C@@H]23)cc1
AC50 (Cytochrome P450 2D6): 3.16 µM (inconclusive)

Cc1nnc(Sc2cc(C(=O)NCCCN(C)Cc3ccccc3)c3ccccc3n2)s1
EC50 [2]: 0.521 µM (active) | EC50 [3]: > 60 µM (not active)

O=C(c1ccc(CN2CCc3ccccc3C2)cc1)N1CCc2ccccc2C1
AC50 (Cytochrome P450 3A4): 3.98 µM (inconclusive)

CN(C)c1ccc(-c2noc(C3CCN(C(=O)Nc4ccc(Cl)cc4)CC3)n2)cc1
EC50 [1]: > 195 µM (not active)

CCCCN1C(=O)NC(=O)/C(=C(/CC)NCc2ccc(F)cc2)C1=O
AC50 (Cytochrome P450 3A4): 28.2 µM (inconclusive)

c1cncc(-c2nc(N3CCNCC3)c3ccccc3n2)c1
AC50 (Cytochrome P450 3A4): 31.6 µM (inconclusive)

COc1ncc2ncc(=O)n(Cc3cccs3)c2n1
AC50 (Cytochrome P450 3A4): 1.26 µM (inconclusive)

CN(C)CCCN(C(=O)c1ccc(S(=O)(=O)N2CCc3ccccc32)cc1)c1nc2c(Cl)cccc2s1
EC50 [2]: 0.206 µM (active) | EC50 [3]: 20.2 µM (active)

O=C(c1ccccc1)N1CCN(CC2CC=CCC2)CC1 (configuration not stated)
EC50 [1]: > 195 µM (not active)

CC(=O)NC1(C(F)(F)F)C(=O)N(Cc2ccccc2)C2=C1C(=O)CC(C)(C)C2 (configuration not stated)
AC50 (Cytochrome P450 3A4): 14.1 µM (inconclusive) | AC50 (Cytochrome P450 2C19; read-out: AC50): 15.8 µM (inconclusive)

CC(O)(CS(=O)(=O)c1cccc(C(F)(F)F)c1)C(=O)Nc1ccc(C(F)(F)F)cc1 (configuration not stated)
AC50 (Cytochrome P450 2D6): 0.0224 µM (inconclusive)

COc1cc(N)c(Cl)cc1C(=O)N[C@@H]1CN2CCC1CC2
AC50 (Cytochrome P450 2D6): 39.8 µM (inconclusive)

N#Cc1cccc(-c2cncnc2NCc2ccccc2)c1
AC50 (Cytochrome P450 2D6): 20 µM (inconclusive)

CC(C)N(CCC(=O)c1ccc2ccccc2c1)Cc1ccccc1
AC50 (Cytochrome P450 3A4): 39.8 µM (inconclusive)
